{"source": "paper PMC12204359", "about": "“Mechanistic Design of Cell-Penetrating Disruptors for a Phospho-Dependent Interaction” (Research Square, 2025)", "key": {"[1]": {"target": "T1, CHC^ankle (clathrin heavy chain aa 358–574) (Homo sapiens, UniProt Q00610)", "T1 construct": "we used the minimal ankle region of CHC (CHC^ankle, aa 358–574); GST (TEV-cleavable); made in house", "T1 sequence (Q00610 358-574)": "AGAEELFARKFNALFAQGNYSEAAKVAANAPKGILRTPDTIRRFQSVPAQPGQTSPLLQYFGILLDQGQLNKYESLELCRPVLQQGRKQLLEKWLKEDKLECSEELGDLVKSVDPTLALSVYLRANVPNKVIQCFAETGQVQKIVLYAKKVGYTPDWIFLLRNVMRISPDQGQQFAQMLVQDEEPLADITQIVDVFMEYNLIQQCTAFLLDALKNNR", "experiment": "Fluorescence polarisation direct binding assay, CHC ankle WT", "method": "(§1) Binding affinity of CHC and TACC3 peptides was calculated based on fluorescence polarization assays performed as reported previously, using linear and stapled FAM-TACC3 peptides corresponding to aa 549–570 of human TACC3 protein. Linear peptides were purchased from PPR (Fareham, UK); Alta Bioscience (Redditch, UK); Biomatik Corporation (Ontario, Canada). Stock solutions of peptides were 10 mM in DMSO. Binding assays were performed in triplicate in the binding buffer 20 mM HEPES pH 7.5, 150 mM NaCl, 5 mM DTT, 0.05% Tween-20. Data analysis was performed using a one-site specific binding model in Prism (GraphPad software, v10.1.0)."}, "[2]": {"target": "T2, biotinylated Avi-tagged ankle region of clathrin (aa 358–574) (Homo sapiens, UniProt Q00610)", "T2 construct": "The biotinylated Avi-tagged ankle region of clathrin (aa 358–574) was immobilised; made in house", "T2 sequence (Q00610 358-574 limits assumed)": "T1 sequence (Q00610 358-574)", "experiment": "SPR binding kinetics", "details": "Biacore 1K+, average ± SD of duplicates; for kon: CHC aa 358–574 on SA chip, 60 s injection, read-out: ka (SPR)", "method": "The SPR assays were performed using a Biacore 1K+ instrument (Cytiva Life Sciences). The biotinylated Avi-tagged ankle region of clathrin (aa 358–574) was immobilised on the surface of a Streptavidin SA chip (Cytiva Life Sciences) to the density of 150 RU. The increasing concentrations of peptide analytes were diluted in the running buffer (20 mM HEPES pH 7.5, 150 mM NaCl, 5 mM DTT, 0.05% Tween-20) and injected at a flow rate of 30 μL/min). […] Each concentration was injected at 30 μL/min for 60 s. […] The Biacore evaluation software was used to calculate equilibrium KD values as well as ka and kd constants using 1:1 steady-state affinity model implemented into the BIAevaluation 3.0 software."}, "K507A-CHC^ankle": {"target": "T3, K507A-CHC^ankle (Homo sapiens, UniProt Q00610, K507A)", "T3 construct": "we used the minimal ankle region of CHC (CHC^ankle, aa 358–574); GST (TEV-cleavable); made in house", "T3 sequence (Q00610 358-574 K507A)": "T1 sequence (Q00610 358-574) with K150A", "experiment": "Fluorescence polarisation direct binding assay, K507A-CHC ankle", "details": "direct binding FP, FAM labelled peptides; CHC with K507A substitution; mean of three experiments ± SD; read-out: KD, stapled and control peptides, CHC K507A", "source_text": "CHC constructs for binding studies were produced during previous work by cloning the respective CHC coding sequence of Q00610 (CLH1_HUMAN) aa 1–574 and 358–574, respectively) into a modified pGEX vector containing a TEV-cleavable GST tag[26]. Point mutations K506A and K507A were introduced by site-directed mutagenesis. GB1-TACC3 is the small protein GB1[47] fused to a short, disordered peptide sequence from human TACC3 (Q9Y6A5, aa 545–573). This hybrid sequence was cloned into a pETM6T1 vector which contains a TEV protease-cleavable N-terminal His-NusA tag.\nas §1"}, "HeLa cells [3]": {"system": "HeLa cells", "experiment": "Confocal microscopy of fixed HeLa cells (peptide localisation, endogenous TACC3 and CHC on mitotic spindle)", "format": "cell-based", "method": "HeLa cells grown on glass coverslips in complete growth medium and treated with 2.5, 5 and 10 μM FAM-peptides for 5 h. Cells were washed with PBS and fixed with PTEMF (20 mM PIPES, pH 6.8, 10 mM EGTA, 1 mM MgCl2, 0.2% Triton X-100 and 4% paraformaldehyde) for 10 min and permeabilized at room temperature in 0.5% Triton-X100 in PBS for 10 min. Cells were blocked in 3% BSA in PBS for 1 h and incubated overnight with primary antibodies diluted in 3% BSA/PBS buffer followed by 1 h incubation with secondary antibodies. Primary antibodies were as follows: mouse anti-CHC (X22; GTX22731; 1:250), rabbit anti-TACC3 (ab134154, Abcam; 1:500). Secondary antibodies were anti-mouse IgG Atto 594 (1:250, 76085, Merck) and anti-rabbit IgG Atto 647N antibody (1:250, 40839, Merck). Coverslips were mounted with ProLong Gold antifade reagent with DAPI (Invitrogen). Peptides were imaged using their 6-FAM fluorescent tag with a 488 nm argon laser. Imaging was performed on a Zeiss LSM880 upright confocal microscope using a 40x/1.4 NA oil objective. Z-stacks comprising of 9–13 × 1 μm sections were acquired. Images were captured using identical settings. The region of interest (~0.6 μm^2) was quantified in three different locations over the spindle, cytoplasm and in the non-cell region of background. Images were analysed using Fiji (v.2.9.0)."}, "HeLa cells [4]": {"system": "HeLa cells", "details": "live HeLa cells, SiR-tubulin, 5 μM peptide, 4 h pre-incubation, imaged 10 h every 5 min; 246–297 mitotic events over 3 imaging sessions", "protocol": "HeLa, MDA-MB-468 and MDA-MB-231 cells were plated in a 35 mm imaging dish (Ibidi) in complete growth medium. Prior to imaging, the DMEM or RPMI growth medium was replaced with Optimem medium (Gibco) supplemented with 10% FBS. Added to the medium was SiR-tubulin (Spirochrome) at 30 nM concentration, SPY555-DNA at 1:18000 dilution; both live-cell imaging probes were used at lower than recommended concentrations to avoid possible effects on mitosis. […] The Lattice Lightsheet 7 microscope was fitted with a 10x/0.4NA water immersion illumination lens, a 48x/1.0NA detection lens and a PCO.edge 4.2 sCMOS camera. Each field of view of approximately 500 μm × 297 μm × 33 μm was imaged at 0.2 μm lightsheet interval with the 640 nm channel (15 ms exposure, 15% laser power) and 561 nm channel (15 ms exposure, 10% laser power) over a 10 h period with scans taken every 5 min. To create movies and frame sequences the cell were imaged every 2.5 min for 5 h. Results were processed using Zeiss LLS software and Fiji (v.2.9.0)."}}, "note": "Positions count from the first letter of the chain named. Positions of bridges follow the written chain, without caps; N, C: chain ends. Non-standard residues stand in square brackets, D forms with d. Residues, ends and D or L forms follow the SMILES beside them. *: point of attachment. 5FAM = O=C1OC2(c3ccc(O)cc3Oc3cc(O)ccc32)c2ccc(C(=O)*)cc21; 6FAM = O=C1OC2(c3ccc(O)cc3Oc3cc(O)ccc32)c2cc(C(=O)*)ccc21; S5 = C=CCCC[C@](C)(N)C(=O)O", "data": [{"smiles": "CC(C)C[C@H](NC(=O)[C@H](C)NC(=O)[C@H](CO)NC(=O)[C@H](CCC(=O)O)NC(=O)[C@H](CCCCN)NC(=O)[C@H](Cc1ccccc1)NC(=O)c1ccc2c(c1)C(=O)OC21c2ccc(O)cc2Oc2cc(O)ccc21)C(=O)N[C@@H](CCCNC(=N)N)C(=O)N[C@@H](CCCCN)C(=O)N[C@@]1(C)CCCC=CCCC[C@@](C)(C(=O)N[C@@H](CCCCN)C(=O)N[C@@H](Cc2ccccc2)C(=O)N[C@@H](CC(=O)O)C(=O)N2CCC[C@H]2C(=O)N[C@@H](CC(C)C)C(=O)N[C@@H](CC(C)C)C(=O)N[C@@H](CCCNC(=N)N)C(=O)N[C@@H](CC(=O)O)C(=O)N[C@@H](CO)C(N)=O)NC(=O)[C@H](Cc2ccc(O)cc2)NC(=O)[C@H](CC(C)C)NC(=O)[C@H](CCC(=O)O)NC1=O", "note": "[SP4E] (5FAM-FKESALRK[S5]ELY[S5]KFDPLLRDS-NH2; staple 9-13)", "values": [{"measurement": "Kd", "setting": "[1]; direct binding FP, FAM labelled peptides, CHC WT (385–574), mean of three experiments ± SD, read-out: KD, stapled and control peptides, CHC WT", "value": "34 ± 5", "unit": "µM"}, {"measurement": "Kd", "setting": "[2]; CHC aa 358–574 on SA chip 150 RU, 20 mM HEPES pH 7.5, 150 mM NaCl, 5 mM DTT, 0.05% Tween-20, 30 μL/min", "value": "2.8 ± 0.2", "unit": "µM"}, {"measurement": "kon", "setting": "[2]", "value": 140000, "unit": "M⁻¹ s⁻¹"}, {"measurement": "Kd", "setting": "K507A-CHC^ankle", "value": "3.7 ± 1", "unit": "µM"}]}, {"smiles": "CC(C)C[C@H](NC(=O)[C@H](C)NC(=O)[C@H](CO)NC(=O)[C@H](CCC(=O)O)NC(=O)[C@H](CCCCN)NC(=O)c1ccc2c(c1)C(=O)OC21c2ccc(O)cc2Oc2cc(O)ccc21)C(=O)N[C@@H](CCCNC(=N)N)C(=O)N[C@@H](CCCCN)C(=O)N[C@@]1(C)CCCC=CCCC[C@@](C)(C(=O)N[C@@H](CCC(=O)O)C(=O)N[C@@H](Cc2ccccc2)C(=O)N[C@@H](CC(=O)O)C(=O)N2CCC[C@H]2C(=O)N[C@@H](CC(C)C)C(=O)N[C@@H](Cc2ccccc2)C(=O)N[C@@H](CCCNC(=N)N)C(=O)N[C@@H](CC(=O)O)C(=O)N[C@@H](CO)C(N)=O)NC(=O)[C@H](CC(C)C)NC(=O)[C@H](CC(C)C)NC(=O)[C@H](CCC(=O)O)NC1=O", "note": "[Opt SP TACC3] (5FAM-KESALRK[S5]ELL[S5]EFDPLFRDS-NH2; staple 8-12)", "values": [{"measurement": "fold increase in binding affinity for CHC compared to WT / parental TACC3 sequence", "setting": "[1]; compared to the WT (parental) TACC3 peptide", "value": "over a hundred-fold higher affinity"}, {"measurement": "kon", "setting": "[2]", "value": "1.8e+06", "unit": "M⁻¹ s⁻¹"}, {"measurement": "colocalisation with endogenous TACC3 on the mitotic spindle", "setting": "HeLa cells [3]; fixed mitotic HeLa cells, FAM-labelled peptides, confocal microscopy", "value": "colocalised with endogenous TACC3 on the mitotic spindle"}, {"measurement": "reduction of endogenous TACC3 levels in the mitotic spindle", "setting": "HeLa cells [3]; metaphase HeLa cells, peptide 2.5, 5 and 10 μM, 5 h, compared to the negative control SP TACC3 peptide", "value": "~ 20%"}]}, {"smiles": "CC(C)C[C@H](NC(=O)[C@H](C)NC(=O)[C@@H]1CCCN1C(=O)[C@H](CC(=O)O)NC(=O)[C@H](C)NC(=O)[C@H](CCC(=O)O)NC(=O)[C@]1(C)CCCC=CCCC[C@](C)(NC(=O)[C@H](CCCCN)NC(=O)[C@H](CCCNC(=N)N)NC(=O)[C@H](CC(C)C)NC(=O)[C@H](C)NC(=O)[C@H](CO)NC(=O)[C@H](CCC(=O)O)NC(=O)[C@H](CCCCN)NC(=O)c2ccc3c(c2)C2(OC3=O)c3ccc(O)cc3Oc3cc(O)ccc32)C(=O)N[C@@H](CCC(=O)O)C(=O)N[C@@H](CC(C)C)C(=O)N[C@@H](CC(C)C)C(=O)N1)C(=O)N[C@@H](CCCNC(=N)N)C(=O)N[C@@H](CC(=O)O)C(=O)N[C@@H](CO)C(N)=O", "note": "[Neg. control SP TACC3] (6FAM-KESALRK[S5]ELL[S5]EADPALRDS-NH2; staple 8-12)", "values": [{"measurement": "median duration of mitosis from NEBD to anaphase onset", "setting": "HeLa cells [4]", "value": 55, "unit": "min"}]}]}
